Measured values published in US20190002480A1, “Silane-Containing Heterocyclic Compounds and Methods of Use Thereof for the Treatment of Viral Diseases” (Merck Sharp & Dohme Corp., priority 2015, published 2019).
Where two headings read alike, the source gives them in different places.

Columns and labels:
HCV replicon GT2a = experiment: Cell-based HCV replicon assay, GT2a; conditions: Hepatitis C virus, 72 h, read-out: GT2a EC90
Experimental: (§1) To measure cell-based anti-HCV activity of compounds of the present invention, two complimentary assays were employed using various replicons. In the first assay (“Replicon Assay A”), replicon cells were seeded at 2000 cells/well in 384-well 384-well flat bottom tissue culture treated clear bottom plate (Corning 3707) in the presence of the test compound. Various concentrations of test compound, typically in 10 serial dilutions, were added to the assay mixture, with the starting concentration ranging from 333.3 nM to […]. The final concentration of DMSO was 0.5%. Fetal bovine serum was 5%, in the assay media. Cells were harvested on day 3 by removing media and washing the cells with a suitable wash buffer. The cells are lysed with the addition of 1× Qiagen lysis buffer (Cat #1062731). The replicon RNA level was measured using real time PCR (TaqMan® EZ RT-PCR, Applied Biosystems 403028) with the following primers and probes: […]
(§2) Cyclophilin RNA was used as endogenous control and was amplified in the same reaction as NS5B (multiplex PCR). The real-time RT-PCR reactions were run on ABI PRISM 7900HT Sequence Detection System using the following program: 50° C. for 2 minutes, 60° C. for 30 minutes, 95° C. for 5 minutes, 40 cycles of 94 C for 20 sec, 55 C for 1 minutes.
(§3) The amount of HCV replicon RNA per cell is quantified using a linear regression curve for a known nanogram (ng) amount of HCV replicon total RNA. This is established by plotting the Cycle Threshold values (Ct) from the Neo probe and primer set versus the log (ng) for each HCV replicon total RNA standard. The amount of HCV RNA for each replicon sample is calculated by taking the sample's Ct value, minus the line intercept, divided by the slope of the line. Similarly, the amount of Cyclophilin mRNA per cell is also quantified using a linear regression curve for a known nanogram (ng) amount of HCV replicon total RNA. Again, this is established by plotting the Cycle Threshold values (Ct) from the Cyclophilin probe and primer set versus the log (ng) for each HCV replicon total RNA standard.
(§4) In an alternate assay (“Replicon Assay B”), 1000 cells were seeded per well in a 384-well collagen coated black plate from Greiner bio-one (Cat #781946) in 5% FBS. Inhibitors of this invention were added at 24 h post-seeding, and the plates were incubated for 3 days. Cells were subsequently lysed with Qiagen lysis buffer (Cat #1062731) to extract the RNA. HCV replicon RNA level was measured by real-time PCR using the RNA-to-CT kit from Applied Biosystem (Cat #4392656) and genotype-specific primers and probes. The amplicon was located within NS5B. The sequence of the PCR primers are as follows: 5B.2F, ATGGACAGGCGCCCTGA (SEQ. ID NO. 1); 5B.2R, […] (SEQ. ID NO. 2); the probe sequence was FAM-labeled CACGCCATGCGCTGCGG (SEQ. ID NO. 3). To detect genotype 1A the primer 1A F, TGCGGAACCGGTGAGTACA and 1A R, […] were used; the probe sequence was FAM-[…].
(§5) The real-time RT-PCR reactions were run on ABI PRISM 7900HT or Viia7 Sequence Detection System using the following program: 48° C. for 30 minutes, 95 C for 10 minutes, 40 cycles of 95 C for 15 sec, 60 C for 1 minutes. The 50% effective concentration (EC50) was the drug concentration necessary to achieve an increase in the cycle threshold (CT) of 1 over the projected baseline CT. The EC90 was the drug concentration necessary to achieve an increase in CT of 3.2 over the projected baseline CT.

HCV replicon GT1a_L31V = experiment: Cell-based HCV replicon assay, GT1a L31V; conditions: Hepatitis C virus, 72 h, read-out: GT1a_L31V EC90
Experimental: as §1, §2, §3, §4, §5

HCV replicon GT3a_WT = experiment: Cell-based HCV replicon assay, GT3a WT; conditions: Hepatitis C virus, 72 h; replicon RNA level by real-time PCR, 3 days
Experimental: as §1, §2, §3, §4, §5

HCV replicon GT1a_Q30R = experiment: Cell-based HCV replicon assay, GT1a Q30R; conditions: Hepatitis C virus, 72 h, read-out: GT1a_Q30R EC90
Experimental: as §1, §2, §3, §4, §5

HCV replicon GT3a_Y93H = experiment: Cell-based HCV replicon assay, GT3a Y93H; conditions: Hepatitis C virus, 72 h, read-out: GT3a_Y93H EC90
Experimental: as §1, §2, §3, §4, §5

HCV replicon GT1a_Y93H = experiment: Cell-based HCV replicon assay, GT1a Y93H; conditions: Hepatitis C virus, 72 h, read-out: GT1a_Y93H EC90
Experimental: as §1, §2, §3, §4, §5

HCV replicon GT1b_WT = experiment: Cell-based HCV replicon assay, GT1b WT; conditions: Hepatitis C virus, 72 h, read-out: GT1b_WT EC90
Experimental: as §1, §2, §3, §4, §5

HCV replicon GT2b_31M = experiment: Cell-based HCV replicon assay, GT2b 31M; conditions: Hepatitis C virus, 72 h, read-out: GT2b_31M EC90
Experimental: as §1, §2, §3, §4, §5

HCV replicon GT6 = experiment: Cell-based HCV replicon assay, GT6; conditions: Hepatitis C virus, GT6, 72 h; replicon RNA level by real-time PCR, 3 days
Experimental: as §1, §2, §3, §4, §5

HCV replicon GT5 = experiment: Cell-based HCV replicon assay, GT5; conditions: Hepatitis C virus, GT5, 72 h; replicon RNA level by real-time PCR, 3 days
Experimental: as §1, §2, §3, §4, §5

HCV replicon GT4 = experiment: Cell-based HCV replicon assay, GT4; conditions: Hepatitis C virus, GT4, 72 h; replicon RNA level by real-time PCR, 3 days
Experimental: as §1, §2, §3, §4, §5

[1] = replicon RNA level by real-time PCR, 3 days

Structure (SMILES) | EC90 (HCV replicon GT2a; [1]) | EC90 (HCV replicon GT1a_L31V) | EC90 (HCV replicon GT3a_WT) | EC90 (HCV replicon GT1a_Q30R) | EC90 (HCV replicon GT3a_Y93H) | EC90 (HCV replicon GT1a_Y93H) | EC90 (HCV replicon GT1b_WT; [1]) | EC90 (HCV replicon GT2b_31M) | EC90 (HCV replicon GT6) | EC90 (HCV replicon GT5) | EC90 (HCV replicon GT2a) | EC90 (HCV replicon GT4) | EC90 (HCV replicon GT1b_WT)
CN[C@@H](C(=O)N1C[Si](C)(C)C[C@H]1c1ncc(-c2cc(F)c3c(c2)O[C@@H](c2cnc(C4CC4)s2)n2c-3cc3cc(-c4cnc([C@@H]5CCCN5C(=O)C(NC(=O)OC)C(C)C)[nH]4)ccc32)[nH]1)c1ccccc1 (stereo partly shown) [Compound 11] | 0.001 nM | 0.0963 nM | 0.347 nM | 0.0318 nM | 74 nM | 0.933 nM | 0.00154 nM | 0.705 nM | 0.0066 nM | 0.0098 nM | – | – | –
COC(=O)N[C@H](C(=O)N1CCC[C@H]1c1ncc(-c2ccc3c(c2)cc2n3[C@H](c3cnc(C4CC4)s3)Oc3cc(-c4cnc([C@@H]5C[Si](C)(C)CN5C(=O)[C@@H](NC(=O)OC)C(C)C)[nH]4)cc(F)c3-2)[nH]1)C(C)C [Compound 6] | – | 0.0599 nM | 1.32 nM | 0.0729 nM | 118 nM | 0.199 nM | – | 3.04 nM | 0.0057 nM | 0.0069 nM | 0.00339 nM | 0.00135 nM | 0.00116 nM
COC(=O)N[C@H](C(=O)N1CCC[C@H]1c1ncc(-c2cc(F)c3c(c2)O[C@@H](c2cnc(C4CC4)s2)n2c-3cc3cc(-c4cnc([C@@H]5C[Si](C)(C)CN5C(=O)[C@@H](NC(=O)OC)C(C)C)[nH]4)ccc32)[nH]1)C(C)C [Compound 1] | – | 0.0568 nM | 1.77 nM | 0.0193 nM | 393 nM | 0.231 nM | – | 2.43 nM | 0.0059 nM | 0.0056 nM | 0.00278 nM | – | –
COC(=O)NC(C(=O)N1CCC[C@H]1c1ncc(-c2ccc3c(c2)cc2n3[C@H](c3cnc(C4CC4)s3)Oc3cc(-c4cnc([C@@H]5C[Si](C)(C)CN5C(=O)[C@@H](NC(=O)OC)[C@@H]5CCOC(C)(C)C5)[nH]4)cc(F)c3-2)[nH]1)C(C)C (stereo partly shown) [Compound 8] | – | 0.0088 nM | 0.709 nM | 0.0056 nM | 133 nM | 0.271 nM | – | 1.12 nM | 0.0079 nM | 0.0072 nM | 0.00118 nM | 0.00103 nM | –
CNC(C(=O)N1C[Si](C)(C)C[C@H]1c1ncc(-c2ccc3c(c2)cc2n3[C@H](c3ccc(C4CC4)s3)Oc3cc(-c4cnc([C@@H]5CCCN5C(=O)[C@@H](NC(=O)OC)C(C)C)[nH]4)cc(F)c3-2)[nH]1)c1ccccc1 (stereo partly shown) [Compound 19] | – | 0.0106 nM | 0.056 nM | 0.0053 nM | 109 nM | 0.219 nM | – | 0.092 nM | 0.0047 nM | 0.0048 nM | – | – | –
CNC(C(=O)N1C[Si](C)(C)C[C@H]1c1ncc(-c2ccc3c(c2)cc2n3[C@H](c3cnc(C4CC4)s3)Oc3cc(-c4cnc([C@@H]5CCCN5C(=O)[C@@H](NC(=O)OC)C(C)C)[nH]4)cc(F)c3-2)[nH]1)c1ccccc1 (stereo partly shown) [Compound 5] | – | 0.0359 nM | 0.257 nM | 0.0155 nM | 110 nM | 0.33 nM | 0.0021 nM | 0.378 nM | 0.0088 nM | 0.0086 nM | – | – | –
COC(=O)NC(C(=O)N1CCC[C@H]1c1ncc(-c2ccc3c(c2)cc2n3[C@H](c3cnc(C4CC4)s3)Oc3cc(-c4cnc([C@@H]5C[Si](C)(C)CN5C(=O)[C@H](N)c5ccccc5)[nH]4)cc(F)c3-2)[nH]1)C(C)C (stereo partly shown) [Compound 10] | 0.00246 nM | 0.859 nM | 5.48 nM | 0.387 nM | 126 nM | 4.28 nM | 0.00142 nM | 12 nM | 0.008 nM | 0.0139 nM | – | – | –
COC(=O)NC(C(=O)N1C[Si](C)(C)C[C@H]1c1ncc(-c2ccc3c(c2)cc2n3[C@H](c3cnc(C4CC4)s3)Oc3cc(-c4cnc([C@@H]5CCCN5C(=O)[C@@H](NC(=O)OC)C(C)C)[nH]4)cc(F)c3-2)[nH]1)C1CCOCC1 (stereo partly shown) [Compound 2] | – | 0.003 nM | 0.17 nM | 0.0043 nM | 168 nM | 0.062 nM | – | 0.231 nM | 0.0044 nM | 0.0041 nM | – | – | –
COC(=O)N[C@H](C(=O)N1CCC[C@H]1c1ncc(-c2cc(F)c3c(c2)O[C@@H](c2ccc(C4CC4)s2)n2c-3cc3cc(-c4cnc([C@@H]5C[Si](C)(C)CN5C(=O)[C@@H](N)c5ccccc5)[nH]4)ccc32)[nH]1)C(C)C [Compound 18] | – | 0.0681 nM | 0.027 nM | 0.0372 nM | 206 nM | 1.22 nM | 0.00111 nM | 0.062 nM | 0.0084 nM | 0.0068 nM | – | – | –
COC(=O)N[C@H](C(=O)N1CCC[C@H]1c1ncc(-c2cc(F)c3c(c2)O[C@@H](c2cnc(C4CC4)s2)n2c-3cc3cc(-c4cnc([C@@H]5C[Si](C)(C)CN5C(=O)C(N)c5ccccc5)[nH]4)ccc32)[nH]1)C(C)C (stereo partly shown) [Compound 12] | 0.00152 nM | 0.149 nM | 0.036 nM | 0.0776 nM | 155 nM | 0.334 nM | 0.00141 nM | 0.061 nM | 0.0863 nM | 0.0144 nM | – | – | –
